Results taken from patent US8124365B2, “Identification of genotype-selective anti-tumor agents” (Whitehead Institute for Biomedical Research, priority 2003, dated 2012).

Assays:
Type in all cases: cell-based, human
[1] = tested on: BJ-TERT/LT/ST/RAS^V12 cells; assay: Pan-caspase inhibitor block of compound-induced cell death; settings: 50 μM inhibitor
reactive oxygen species = assay: ROS analysis, flow cytometry using H2DCF-DA; settings: engineered cells
From the text: 2′7′ dichlorodihydrofluorescein diacetate (H2DCF-DA) is a non-fluorescent cell permeable compound. The endogenous esterase enzyme inside the cell cleaves the diacetate part, and it can no longer pass out of the cell. Thus it accumulates in the cell. Then H2DCF reacts with ROS to form fluorescent dichlorofluorescene (DCF) which can be measured by flow cytometry in FL1 channel. • 1. Seed cells at 3×10^5 cells per dish in 60 mm dishes and allow to grow overnight. • 2. Treat with the test compound for different period of time (1-10 hr). • 3. Maintain one dish for untreated cells, compound treated cell and positive control dish (hydrogen peroxide treated) for each time point. • 4. Incubate the cells with 10 μM of H2DCF-DA for 10 minutes at 37° C. • 5. For positive control cells, after 5 minutes of H2DCF-DA loading, add 500 μM of hydrogen peroxide and incubate for 5 minutes further. • 6. Harvest the cell by trypsinization. • 7. Wash with cold PBS-twice. • 8. Resuspend the pellet in 100 μl of PBS and transfer into 5 ml FACS tube. • 9. Add 5 μl of propidium iodide (50 μg/ml) and incubate for 10 minutes on ice in dark. • 10. Add 400 μl of PBS and analyze by flow cytometry (Becton-Dickinson). • 11. Acquire the data and analyze using CellQuest software program. • 12. Take only propidium iodiode negative cells (viable cells) for the analysis for DCF staining using the FL1 channel, PI in FL3 channel, plot a quadrant chart.

[2] = tested on: BJ-TERT/LT/ST/RAS^V12 cells; assay: Calcein AM viability assay, dilution series, BJ-TERT/LT/ST/RAS^V12 tumorigenic cells
Protocol: Described here is work carried out to identify compounds with increased potency or activity in the presence of hTERT, LT, ST, E6, E7 or RAS^V12. […] The primary screen tested (in quadruplicate) the effect of treating tumorigenic […], corresponding to 10 μM for a compound with a molecular weight of 400, which is the approximate median molecular weight of the libraries. […] In live cells, calcein AM is cleaved by intracellular esterases, forming the anionic fluorescent derivative calcein, which cannot diffuse out of live cells. […] The IC50 value (concentration required to inhibit 50% of the calcein AM signal) was calculated for each compound in each cell line (Table 1).
Calcein acetoxylmethyl ester (AM) is a cell membrane-permeable, non-fluorescent compound that is cleaved by intracellular esterases to form the anionic, cell-impermeable, fluorescent compound calcein. Viable cells are stained by calcein because of the presence of intracellular esterases and because the intact plasma membrane prevents fluorescent calcein from leaking out of cells (Wang et al., 1993, supra). Cells were seeded in 384-well plates using a Zymark Sciclone ALH, treated with each […], washed with phosphate-buffered saline on a Packard Minitrak with a 384-well washer and incubated for four hours with 0.7 μg/mL calcein (Molecular Probes). Total fluorescence intensity in each well was recorded on a Packard Fusion platereader, and converted to a percent inhibition of signal by subtracting the instrument background and dividing by the average signal obtained when cells were not treated with any compound.
Compounds to be retested were purchased from manufacturers. Stocks were prepared in DMSO at a concentration of 1 mg/ml in 384-well polypropylene plates with a 16-point, two-fold dilution dose curve of each compound in a column, in duplicates. Column 1-2 and 23-24 were left empty for controls. Daughter retest plates were prepared from stock retest plate by diluting 66.6 fold in DMEM in 384-well deep-deep well plates (4.5 μl transfer into 300 μl). Cells were seeded at a density of 6000 per well in 40 μl, and 20 μl was added from a daughter retest plate. […]
The IC50 in primary BJ cells was divided by the IC50 in BJ-TERT/LT/ST/RAS^V12 tumorigenic cells to obtain a tumor selectivity ratio for each compound. The compound selectivity for each genetic element was determined by calculating the selectivity ratio for each subsequent pair of cell lines in a series.

BJ primary cells = assay: Co-treatment of BJ primary cells with camptothecin or erastin and a second compound, calcein AM viability staining; settings: for effect on BJ cell viability on its own: calcein AM; for sensitization of BJ cells to camptothecin: simultaneous treatment with camptothecin
From the text: (A-C) Western blot of lysates from BJ, BJ-TERT, BJ-TERT/LT/ST, BJ-TERT/LT/ST/RAS^V12, BJ-TERT/LT/RAS^V12 and BJ-TERT/LT/RAS^V12/ST cells with an antibody directed against topoisomerase II (A) or TOPI (B, C). In panel (C), cells were transfected with an siRNA directed against TOPI, lamic A/C or with a control double strand DNA duplex of the same length (TOPI dsDNA). In each case, the blot was probed with an antibody against eIF-4E to identify differences in the amount of protein loaded. The relative amount is quantitated below each band. […] Cell number was determined after transfection with an siRNA directed against TOPI and treatment with the indicated concentrations of camptothecin. (E) Okadaic acid, an inhibitor of PP2A and other cellular phosphatases, sensitizes primary human cells to camptothecin. BJ primary cells were treated simultaneously with the indicated concentrations of both camptothecin and okadaic acid and the effect on calcein AM viability staining was determined. […] BJ primary cells were treated with the indicated concentrations of okadaic acid and the expression level of TOPI was determined by western blot. The relative amount is quantitated below each band.
The compounds in group (iii) are camptothecin (CPT) and a novel compound from a combinatorial library, which Applicants have named erastin, for eradicator of RAS and ST-expressing cells (FIG. 2). Efficient CPT-induced and erastin-induced cell death requires the presence of both ST and RAS^V12 (FIGS. 3 and 4 and Table 1). Although CPT and erastin have a similar genetic basis of selectivity, they have distinct mechanisms of action. […] The phosphatase inhibitor okadaic acid was capable of sensitizing otherwise resistant BJ primary cells to CPT (FIG. 5E), possibly because okadaic acid upregulates TOP1 (FIG. 5F).

TOP1 = assay: Western blot of TOP1 expression in okadaic acid-treated BJ primary cells
From the text: (A-C) Western blot of lysates from BJ, BJ-TERT, BJ-TERT/LT/ST, BJ-TERT/LT/ST/RAS^V12, BJ-TERT/LT/RAS^V12 and BJ-TERT/LT/RAS^V12/ST cells with an antibody directed against topoisomerase II (A) or TOPI (B, C). In panel (C), cells were transfected with an siRNA directed against TOPI, lamic A/C or with a control double strand DNA duplex of the same length (TOPI dsDNA). In each case, the blot was probed with an antibody against eIF-4E to identify differences in the amount of protein loaded. The relative amount is quantitated below each band. […] Cell number was determined after transfection with an siRNA directed against TOPI and treatment with the indicated concentrations of camptothecin. (E) Okadaic acid, an inhibitor of PP2A and other cellular phosphatases, sensitizes primary human cells to camptothecin. BJ primary cells were treated simultaneously with the indicated concentrations of both camptothecin and okadaic acid and the effect on calcein AM viability staining was determined. […] BJ primary cells were treated with the indicated concentrations of okadaic acid and the expression level of TOPI was determined by western blot. The relative amount is quantitated below each band. […]

BJELR cells = assay: Screen of ACL library for suppressors of erastin activity in BJELR cells; settings: 5 μg/ml erastin
Protocol: ACL library comprises 1,540 compounds and all compounds were prepared in DMSO at […] in 384-well polypropylene plates and stored at −20° C. Replica daughter plates for each library plate were prepared using Zymark Scilone ALH. The daughter plates were diluted 50 fold in DMEM and compound concentration in the daughter plate is 80 μg/ml with 2% DMSO. In assay plate compound from the daughter plate is diluted 20 fold with cell suspension, thus final concentration of each compound is 4 μg/ml.
BJELR cells were seeded at 6000 cells/well (57 μl) (for co-treatment screen) and 5000 cells/well (57 μl) (for pretreatment screen) in 384-well black, clear bottom plates using syringe bulk dispenser. For co-treatment suppressor screen, cells were treated with 3 μl of compound from the daughter plates of ACL library (final concentration in assay plate at 4 μg/ml) and at the same time treated with 5 μg/ml of erastin. Compound transfer was done using 384 fixed cannula head. Plates were incubated for 48 hours at 37° C. in incubator with 5% CO2. For the pretreatment screens, cells were pre-incubated with the compound from ACL daughter library plate for overnight and then treated with 5 μg/ml of erastin for further 48 hours. […] Fluorescence intensity was determined using Fusion platereader with filters centered in an excitation of 485 nm and emission of 535 nm. […]

[3] = tested on: tumor cells (BJELR cells) versus normal cells (BJEH cells); assay: Testing of erastin analogs for activity and selectivity in tumor cells versus normal cells
From the text: Applicants additionally tested 135 analogs of erastin for activity and selectivity in tumor cells versus normal cells. […] This compound was named erastin B (see FIG. 8). […] BJELR cells are BJ-TERT/LT/ST/RAS^V12 cells, and BJEH are BJ-TERT cells.

COC(=O)CC(NC(=O)OC(C)(C)C)C(=O)CF [BOC-D-FMK, Boc-Asp(Ome)-fluoromethyl ketone]
block of cell death induced by CPT [1]: partially blocked cell death induced by CPT | block of cell death induced by erastin [1]: not by erastin

COc1cccc2c1C(=O)c1c(O)c3c(c(O)c1C2=O)C[C@@](O)(C(C)=O)C[C@@H]3O[C@H]1C[C@H](N)[C@H](O)[C@H](C)O1 [Daunorubicin, daunorubicin]
formation of reactive oxygen species (reactive oxygen species): did not observe the formation of ROS

COc1cccc2c1C(=O)c1c(O)c3c(c(O)c1C2=O)C[C@@](O)(C(=O)CO)C[C@@H]3O[C@H]1C[C@H](N)[C@H](O)[C@H](C)O1 [Doxorubicin, doxorubicin]
formation of reactive oxygen species (reactive oxygen species): did not observe the formation of ROS

CCOc1ccccc1-n1c(C(C)N2CCN(C(=O)COc3ccc(Cl)cc3)CC2)nc2ccccc2c1=O (stereo not drawn) [Erastin, erastin]
effectiveness of cell death ([2]; BJ-TERT/LT/ST/RAS^V12 cells, within 18 hours): 100%

O=C1c2c(O)ccc(O)c2C(=O)c2c(NCCNCCO)ccc(NCCNCCO)c21 [Mitoxantrone, mitoxantrone]
Tumor Selectivity ([2]; IC50 in primary BJ cells divided by IC50 in BJ-TERT/LT/ST/RAS^V12 tumorigenic cells): 16 | formation of reactive oxygen species (reactive oxygen species): did not observe the formation of ROS

C=C1[C@@H](O)[C@@H]2O[C@]3(CC[C@H](/C=C/[C@@H](C)[C@@H]4CC(C)=C[C@@]5(O[C@H](C[C@@](C)(O)C(=O)O)CC[C@H]5O)O4)O3)CC[C@H]2O[C@@H]1[C@@H](O)C[C@H](C)[C@H]1O[C@@]2(CCCCO2)CC[C@H]1C [okadaic acid]
sensitization of BJ or BJ-TERT cells to erastin (BJ primary cells): does not render BJ or BJ-TERT cells sensitive to erastin | effect on BJ cell viability on its own (BJ primary cells; 3.4 nM): no effect on its own | effect on BJ cell viability on its own (BJ primary cells; highest concentrations tested): kills BJ cells | sensitization of BJ cells to camptothecin (BJ primary cells): renders BJ cells sensitive to camptothecin | expression level of TOP1 (TOP1): stimulates expression of TOP1

COc1cc([C@@H]2c3cc4c(cc3[C@H](O)[C@H]3COC(=O)[C@H]23)OCO4)cc(OC)c1OC [podophyllotoxin]
sensitization of BJ cells to camptothecin (BJ primary cells): does not sensitize BJ or BJ-TERT cells to CPT

Cc1c(C)c2c(c(C)c1O)CC[C@@](C)(CCC[C@H](C)CCC[C@H](C)CCCC(C)C)O2 [α-tocopherol]
suppression of erastin activity (BJELR cells): suppress erastin activity

erastin B
activity and selectivity in tumor cells versus normal cells [3]: active and selective, but less potent than erastin
